“Also recorded” adds a separate entry of the source. Like-named read-outs stand apart in the source and are kept apart here.
Experiments:
[1] = tested on: HCC366; assay: Cell proliferation (colony assay) IC50; format: cell-based; settings: HCC366, mutant SMARCA4
[2] = tested on: H2228; assay: Cell proliferation (colony assay) IC50; format: cell-based; settings: Homo sapiens, NCI-H2228; H2228, wild-type SMARCA4
[3] = tested on: HCC827; assay: Cell proliferation (colony assay) IC50; format: cell-based; settings: Homo sapiens; HCC827, wild-type SMARCA4
[4] = tested on: wild-type SMARCA4 cells; assay: Colony assay / cell proliferation, wild-type SMARCA4 cell lines as a group; format: cell-based
Procedure: (§1) Cell lines with wild-type SMARCA4 (HCC44, H2122, H1792 and H1975) and cell lines with mutant SMARCA4 (H1693, HCC515, H322, and H1299) were seeded in appropriate dilutions to form colonies in about 1-3 weeks. Cells were treated with ACBI1 or Compound 101 at concentrations of 0.001, 0.01, 0.1, 1, and 10 μm. Colonies were fixed with glutaraldehyde (6% v/v), stained with crystal violet (0.5% w/v) and the percent area of colonies was determined (FIGS. 3A and 3B). In cell lines with wild-type SMARCA4, inhibition of colony growth was more pronounced after treatment with ACBI1 than Compound 101 (FIG. 3A).

[5] = tested on: mutant SMARCA4 cells; assay: Colony assay / cell proliferation, mutant SMARCA4 cell lines as a group; format: cell-based
Procedure: as §1

[6] = tested on: H1793; assay: Cell proliferation (colony assay) IC50; format: cell-based; settings: Homo sapiens, NCI-H1793; H1793, mutant SMARCA4
[7] = tested on: H2126; assay: Cell proliferation (colony assay) IC50; format: cell-based; settings: Homo sapiens, NCI-H2126; H2126, mutant SMARCA4
[8] = target: SMARCA4 (Homo sapiens, UniProt P51532); assay: SMARCA4 degradation in cell lines, western blot; format: cell-based
[9] = tested on: HCC2279; assay: Cell proliferation (colony assay) IC50; format: cell-based; settings: HCC2279, wild-type SMARCA4
[10] = tested on: A549; assay: Cell proliferation (colony assay) IC50; format: cell-based; settings: Homo sapiens; A549, mutant SMARCA4
[11] = target: SMARCA2 (Homo sapiens, UniProt P51531); assay: SMARCA2 degradation in cell lines, western blot; format: cell-based
Procedure: Cell lines with wild-type SMARCA4 (H1975, H1792, H2122, and H441) were treated with DMSO or 0.001, 0.01, 0.1, 1, or 10 μm of ACBI1 (degrader of SMARCA2, SMARCA4 and polybromo-associated BAF complex PBRM1) or Compound 101 and expression levels of SMARCA2 (FIG. 2A) and SMARCA4 (FIG. 2B) were detected by western blot.
Cell lines with wild-type SMARCA4 (H1792) and mutant SMARCA4 (H1299) were treated for 72 h or 96 h with DMSO or 0.001, 0.01, 0.1, 1, or 10 μm Compound 103 and analyzed by western blot for SMARCA2, SMARCA4, and PBRM1 expression (FIGS. 4A, 4B, and 4C).
Cell lines with wild-type SMARCA4 (H1792) and mutant SMARCA4 (H1299) were treated for 72 h or 96 h with DMSO or 0.001, 0.01, 0.1, 1, or 10 μm Compound 102 and analyzed by western blot for SMARCA2, SMARCA4, and PBRM1 expression (FIGS. 5A, 5B, and 5C).
Cell lines with wild-type SMARCA4 (H1975) were treated with DMSO or 0.001, 0.01, 0.1, 1, or 10 μm of Compounds 104, 105, 106, 107, or 108 and analyzed by western blot for SMARCA2, SMARCA4, and PBRM1 expression (FIGS. 6A and 6B).

[12] = tested on: H2023; assay: Cell proliferation (colony assay) IC50; format: cell-based; settings: NCI-H2023; H2023, mutant SMARCA4
[13] = tested on: HCC515 lung cancer xenograft; assay: In vivo anti-tumor efficacy, HCC515 lung cancer xenograft model; settings: female NCR Nude mice, 12.5 mg/kg intraperitoneally once daily in 15% Solutol with 12.5 mg/kg ritonavir, versus vehicle
Procedure: About 1×10^7 HCC515 cells were injected into the flanks of female NCR Nude Mice. Tumor take was monitored visually and by palpation bi-weekly. Once tumors reached an average volume of 100 mm^3 mice were randomized into control and SMARCA2 degrader groups. Treatment cohorts were as follows: Vehicle was 15% Solutol in water together with 12.5 mg/kg of ritonavir as metabolic stabilizer. In the vehicle group, ten animals were injected with vehicle intraperitoneally. In the treatment group, ten animals were injected intraperitoneally once daily with 12.5 mg/kg of the SMARCA2 degrader Compound 101 in 15% Solutol in water together with 12.5 mg/kg of ritonavir as metabolic stabilizer.
Tumor diameter and volume were calculated based on caliper measurements of tumor length and […] using the formula tumor volume=(length×width^2)/2. Tumor volume and body weight were measured three times a week.

[14] = H441, wild-type SMARCA4 cell line
[15] = H1975, H1792, H2122, H441, 0.001-10 μm, increasing concentrations

Sequence of SMARCA4 (P51532 whole entry): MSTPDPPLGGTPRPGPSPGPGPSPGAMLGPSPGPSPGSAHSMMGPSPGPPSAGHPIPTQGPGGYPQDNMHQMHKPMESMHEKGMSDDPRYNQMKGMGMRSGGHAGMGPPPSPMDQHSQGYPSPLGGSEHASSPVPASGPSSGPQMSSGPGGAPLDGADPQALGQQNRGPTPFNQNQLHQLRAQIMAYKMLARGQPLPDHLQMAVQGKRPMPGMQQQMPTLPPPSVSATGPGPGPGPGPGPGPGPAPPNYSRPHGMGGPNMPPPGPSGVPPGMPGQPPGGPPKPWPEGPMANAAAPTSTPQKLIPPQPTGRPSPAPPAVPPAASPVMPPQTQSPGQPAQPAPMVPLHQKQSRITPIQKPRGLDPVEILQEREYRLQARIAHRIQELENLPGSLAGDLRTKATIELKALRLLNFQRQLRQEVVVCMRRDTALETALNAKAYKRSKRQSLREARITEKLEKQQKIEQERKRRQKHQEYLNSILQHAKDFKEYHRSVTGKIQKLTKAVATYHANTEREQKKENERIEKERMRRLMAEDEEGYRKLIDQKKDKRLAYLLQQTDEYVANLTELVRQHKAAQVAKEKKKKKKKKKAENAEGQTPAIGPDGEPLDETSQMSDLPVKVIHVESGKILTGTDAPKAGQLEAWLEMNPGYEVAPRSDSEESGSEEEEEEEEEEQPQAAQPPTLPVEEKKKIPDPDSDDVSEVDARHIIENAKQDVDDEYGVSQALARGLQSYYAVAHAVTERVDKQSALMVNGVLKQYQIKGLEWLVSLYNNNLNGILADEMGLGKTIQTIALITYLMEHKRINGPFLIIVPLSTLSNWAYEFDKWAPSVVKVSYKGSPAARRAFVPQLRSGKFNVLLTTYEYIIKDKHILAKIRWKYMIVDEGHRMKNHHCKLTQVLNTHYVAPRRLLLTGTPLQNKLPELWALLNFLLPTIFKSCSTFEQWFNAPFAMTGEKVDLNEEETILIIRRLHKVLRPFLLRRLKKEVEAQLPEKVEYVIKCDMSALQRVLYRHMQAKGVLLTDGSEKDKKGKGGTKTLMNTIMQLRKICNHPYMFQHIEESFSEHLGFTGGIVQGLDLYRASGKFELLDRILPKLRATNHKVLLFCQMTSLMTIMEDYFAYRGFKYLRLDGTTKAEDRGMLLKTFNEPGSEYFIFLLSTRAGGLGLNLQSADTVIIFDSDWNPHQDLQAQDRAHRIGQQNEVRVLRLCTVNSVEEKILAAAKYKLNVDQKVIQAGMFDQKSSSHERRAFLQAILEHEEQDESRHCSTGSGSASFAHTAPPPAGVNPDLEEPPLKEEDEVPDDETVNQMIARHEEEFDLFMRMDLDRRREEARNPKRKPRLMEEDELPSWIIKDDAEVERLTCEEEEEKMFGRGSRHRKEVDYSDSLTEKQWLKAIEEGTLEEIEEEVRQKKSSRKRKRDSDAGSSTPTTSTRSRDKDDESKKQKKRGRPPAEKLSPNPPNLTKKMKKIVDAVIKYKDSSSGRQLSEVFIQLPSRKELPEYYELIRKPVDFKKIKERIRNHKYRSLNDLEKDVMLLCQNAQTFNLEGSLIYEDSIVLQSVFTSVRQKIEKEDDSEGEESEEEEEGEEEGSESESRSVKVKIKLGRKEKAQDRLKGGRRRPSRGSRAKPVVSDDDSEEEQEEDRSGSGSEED
Sequence of SMARCA2 (P51531 whole entry): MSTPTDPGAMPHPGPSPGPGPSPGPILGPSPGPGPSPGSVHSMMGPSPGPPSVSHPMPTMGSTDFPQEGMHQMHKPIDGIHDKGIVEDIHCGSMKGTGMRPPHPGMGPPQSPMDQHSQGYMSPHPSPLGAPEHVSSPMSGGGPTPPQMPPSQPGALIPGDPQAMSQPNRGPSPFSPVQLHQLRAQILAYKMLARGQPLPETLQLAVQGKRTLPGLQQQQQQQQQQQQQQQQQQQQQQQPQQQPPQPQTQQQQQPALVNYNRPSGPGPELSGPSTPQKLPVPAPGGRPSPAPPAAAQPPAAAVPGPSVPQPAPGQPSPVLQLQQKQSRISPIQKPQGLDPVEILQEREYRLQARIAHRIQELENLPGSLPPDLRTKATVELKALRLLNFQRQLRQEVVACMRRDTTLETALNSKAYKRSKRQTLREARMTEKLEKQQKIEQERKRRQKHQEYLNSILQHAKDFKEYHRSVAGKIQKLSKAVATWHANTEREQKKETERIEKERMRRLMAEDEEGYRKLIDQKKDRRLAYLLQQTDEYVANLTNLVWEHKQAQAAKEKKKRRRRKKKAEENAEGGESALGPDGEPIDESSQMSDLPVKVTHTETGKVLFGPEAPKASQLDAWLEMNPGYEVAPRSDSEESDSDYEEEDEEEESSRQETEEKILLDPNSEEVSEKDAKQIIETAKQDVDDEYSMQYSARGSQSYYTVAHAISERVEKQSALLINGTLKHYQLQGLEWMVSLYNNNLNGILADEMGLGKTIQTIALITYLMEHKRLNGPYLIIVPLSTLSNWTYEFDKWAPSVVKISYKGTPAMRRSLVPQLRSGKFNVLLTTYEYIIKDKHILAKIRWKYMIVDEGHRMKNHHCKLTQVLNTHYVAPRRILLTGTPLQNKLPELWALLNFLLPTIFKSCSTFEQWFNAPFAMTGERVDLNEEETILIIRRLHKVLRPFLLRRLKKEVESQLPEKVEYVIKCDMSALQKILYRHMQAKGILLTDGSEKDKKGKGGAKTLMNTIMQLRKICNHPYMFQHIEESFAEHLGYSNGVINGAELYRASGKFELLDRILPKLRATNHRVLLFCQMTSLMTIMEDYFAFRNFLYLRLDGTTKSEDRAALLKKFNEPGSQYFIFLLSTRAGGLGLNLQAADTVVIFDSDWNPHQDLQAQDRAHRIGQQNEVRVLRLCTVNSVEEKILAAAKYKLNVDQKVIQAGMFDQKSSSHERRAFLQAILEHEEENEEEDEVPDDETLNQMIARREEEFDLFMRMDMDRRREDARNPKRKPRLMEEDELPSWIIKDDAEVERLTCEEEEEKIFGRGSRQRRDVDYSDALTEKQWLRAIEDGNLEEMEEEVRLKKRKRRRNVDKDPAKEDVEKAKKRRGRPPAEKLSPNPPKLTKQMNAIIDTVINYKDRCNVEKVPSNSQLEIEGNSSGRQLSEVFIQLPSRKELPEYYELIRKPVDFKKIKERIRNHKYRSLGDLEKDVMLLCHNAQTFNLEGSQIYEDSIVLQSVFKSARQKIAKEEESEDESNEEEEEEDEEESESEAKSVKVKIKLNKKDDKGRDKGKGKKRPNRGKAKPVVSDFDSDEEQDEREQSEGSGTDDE

SMILES: Nc1nnc(-c2ccccc2O)cc1N1CCN(Cc2ccc(OCCOCCNc3cccc4c3C(=O)N(C3CCC(=O)NC3=O)C4=O)c(F)c2)CC1 (stereo not drawn) [Compound 101]
- IC50 [1]: 242 nM
- IC50 [2]: 970 nM
- IC50 [3]: > 10000 nM
- inhibition at 0.1 µM ([4]; read-out: inhibition at 100 nM in wild-type SMARCA4 cells (see FIG. 3D)): < 10%
- IC50 ([4]; wild-type SMARCA4 cells (Table 4), read-out: IC50, span over cell lines): 970 to 10000 nM
- colony growth / proliferation of mutant SMARCA4 cells (in words) ([5]; H1693, HCC515, H322, H1299, 0.001-10 μm): selectively inhibited SMARCA4 mutant cells; also recorded: selectively inhibited cell proliferation in mutant SMARCA4 cell lines
- IC50 ([5]; mutant SMARCA4 cells (Table 5), upper end printed as >10 M, read-out: IC50, lower end of span over cell lines): ≥ 93 nM
- inhibition at 0.1 µM ([5]; read-out: inhibition at 100 nM in SMARCA4 mutant cells (see FIG. 3D)): ≤ 50%
- IC50 [6]: 900 nM
- IC50 [7]: ~20 nM
- SMARCA4 Dmax (%) [8, 14]: 37%
- DC50 ([8]; H441, wild-type SMARCA4 cell line, read-out: SMARCA4 DC50): > 10000 nM
- DC50 ([8]; H1792, wild-type SMARCA4 cell line, read-out: SMARCA4 DC50): > 10000 nM
- Dmax ([8]; H1975, H1792, H2122, H441 (Table 3), read-out: SMARCA4 Dmax, span over cell lines): 38 to 50%
- SMARCA4 degradation (western blot, in words) [8, 15]: degraded SMARCA2 and SMARCA4
- DC50 ([8]; H1975, wild-type SMARCA4 cell line, read-out: SMARCA4 DC50): > 10000 nM
- DC50 ([8]; H2122, wild-type SMARCA4 cell line, read-out: SMARCA4 DC50): > 10000 nM
- DC50 ([8]; H2228, wild-type SMARCA4 cell line, read-out: SMARCA4 DC50): > 10000 nM
- Dmax ([8]; HCC44, HCC44, wild-type SMARCA4 cell line, read-out: SMARCA4 Dmax (%)): 39%
- DC50 ([8]; HCC44, wild-type SMARCA4 cell line, read-out: SMARCA4 DC50): > 10000 nM
- Dmax ([8]; HCC827, HCC827, wild-type SMARCA4 cell line, read-out: SMARCA4 Dmax (%)): 39%
- DC50 ([8]; HCC827, wild-type SMARCA4 cell line, read-out: SMARCA4 DC50): > 10000 nM
- DC50 ([8]; HCC2279, wild-type SMARCA4 cell line, read-out: SMARCA4 DC50): 560 nM
- Dmax ([8]; HCC2279, wild-type SMARCA4 cell line, read-out: SMARCA4 Dmax (%)): 79%
- DC50 ([8]; HOP62, wild-type SMARCA4 cell line, read-out: SMARCA4 DC50): 1410 nM
- Dmax ([8]; HOP-62, HOP62, wild-type SMARCA4 cell line, read-out: SMARCA4 Dmax (%)): 77%
- Dmax ([8]; NCI-H441, H441, wild-type SMARCA4 cell line, read-out: SMARCA4 Dmax (%)): 50%
- Dmax ([8]; NCI-H1792, H1792, wild-type SMARCA4 cell line, read-out: SMARCA4 Dmax (%)): 38%
- Dmax ([8]; NCI-H2122, H2122, wild-type SMARCA4 cell line, read-out: SMARCA4 Dmax (%)): 47%
- Dmax ([8]; NCI-H2228, H2228, wild-type SMARCA4 cell line, read-out: SMARCA4 Dmax (%)): 25%
- Dmax ([8]; wild-type SMARCA4 cells (Table 4), read-out: SMARCA4 Dmax, span over cell lines): 38 to 79%
- DC50 ([8]; wild-type SMARCA4 cells (Table 4), upper end printed as above 10 μM, read-out: DC50 for SMARCA4 degradation, lower end of span over cell lines): ≥ 560 nM
- IC50 [9]: > 10000 nM
- IC50 [10]: > 10000 nM
- DC50 [11, 14]: 99 nM
- DC50 ([11]; H1792, wild-type SMARCA4 cell line): 94 nM
- SMARCA2 degradation (western blot, in words) [11, 15]: degraded SMARCA2 and SMARCA4
- DC50 ([11]; H1975, wild-type SMARCA4 cell line, concentration at which 50% of the target protein is degraded): 103 nM
- DC50 ([11]; H2122, wild-type SMARCA4 cell line): 292 nM
- selectivity in degrading SMARCA2 compared to SMARCA4, relative to ACBI1 ([11]; wild-type SMARCA4 cell lines H1975, H1792, H2122, H441): greater than 100 times
- IC50 [12]: 483 nM
- tumor volume (in words) [13]: substantial reduction in tumor volume
